Measurements reported in patent US20130117887A1, “Herbicide resistant Camelina Sativa” (Agragen Inc, priority 2010, published 2013).

Columns and labels:
[1] = system: non-transgenic seedlings of C. sativa cv. Blane Creek (wild type); test: Seedling herbicide assay, highest survival concentration, non-transgenic control; format: in vivo, Camelina sativa; conditions: for Highest surviving concentration: seedlings one week on MS agar
Excerpt: (§1) Seedlings of the developed transgenic lines of Camelina sativa, cultivars Blane Creek and Calena second (T1) and fourth (T3) generations were exposed to various concentration of three herbicides: imidazolinone (IMI), chlorsulfuron (CSU) and metsulfuron (MSU). Resistance of the transgenic lines was compared to control non-transgenic seedlings of C. sativa cv. Blane Creek.
(§2) Seeds were sterilized in 2% Na-hypocloride and placed on wet filter paper in sterile conditions to allow germination. On the next day well-germinated seedlings were transferred on Petri dishes containing MS (Murasige-Scoog) 0.7% agar (without sucrose or hormones). Each dish contained one from the three herbicides in particular concentration (0.0001, 0.001, 0.01, 0.1, 1.0, 10, 100 mg/l). After one week of cultivation in vitro (+25° C./+18° C.; light/dark) the seedlings were photographed (as shown on the FIGS. 16A-16F). The highest survival concentration was found for each transgenic line and for each herbicide and compared to the non-transgenic control.

[2] = system: transgenic Camelina sativa lines bearing A122T mutated ALS gene; test: Seedling herbicide assay, transgenic lines bearing A-mutated (A122T) ALS gene; format: in vivo; conditions: for Effect as compared to control / Highest surviving concentration: T1, A122T
Description: Calena, as well as A9.1 (VK14A9.1) and A9.2 (VK14A9.4.2) of the second generation (T1) Camelina sativa v. Blane Creek. The seedlings were grown one week on the various concentrations of herbicides MSU, CSU and IMI. The concentrations are shown in mg/l. Control plate has no herbicide in the grown media.
as §1, §2

[3] = system: transgenic Camelina sativa lines bearing P197S mutated ALS gene; test: Seedling herbicide assay, transgenic lines bearing P-mutated (P197S) ALS gene; format: in vivo; conditions: for Effect as compared to control / Highest surviving concentration: T1, P197S
Description: Calena and A 10 (VK14A10.16) of the second generation (T1) Camelina sativa c. Blane Creek. The seedlings were grown one week on various concentrations of herbicides MSU, CSU and IMI. The concentrations are shown in mg/l.
as §1, §2

[4] = system: transgenic Camelina sativa lines bearing W574L mutated ALS gene; test: Seedling herbicide assay, transgenic lines bearing W-mutated (W574L) ALS gene; format: in vivo; conditions: for Effect as compared to control / Highest surviving concentration: Blane Creek
Description: Blane Creek and ALS23.3 (VK10A2.3) of the […] (T3) of Camelina sativa v. Blane Creek. The seedlings were grown one week on various concentrations of herbicides MSU, CSU and IMI. The concentrations are shown in mg/l. Control plate has no herbicide in the grown media.
as §1, §2

[5] = system: transgenic Camelina sativa lines bearing P197S-W574L mutated ALS gene; test: Seedling herbicide assay, transgenic lines bearing double (PW) mutated ALS gene; format: in vivo; conditions: for Effect as compared to control / Highest surviving concentration: Blane Creek, T3, P197S-W574L
Description: Blane Creek. The seedlings were grown one week on the various concentrations of herbicides MSU, CSU and IMI. The concentrations are shown in mg/l. Control plate has no herbicide in the growth media.
as §1, §2

[6] = system: transgenic Camelina sativa lines bearing A122T-P197S-W574L mutated ALS gene; test: Seedling herbicide assay, transgenic lines bearing triple (APW) mutated ALS gene; format: in vivo; conditions: Blane Creek, T3, A122T-P197S-W574L
Description: Blane Creek. The seedlings were grown one week on various concentrations of herbicides MSU, CSU and IMI. The concentrations are shown in mg/l. Control plate has no herbicide in the grown media.
as §1, §2

[7] = system: transgenic C. sativa cv. Celine lines VK6-A1-No24 and VK6-A1-No26 (35S promoter, ALS W574 mutant); test: In vitro leaf segment test, transgenic lines; format: cell-based, Camelina sativa; conditions: media with 0.001, 0.01, 0.1, 1.0 mg/l herbicide, FIG. 13
Excerpt: (§3) FIG. 13 In vitro leaf segment test of two transgenic C. sativa cv. Celine lines VK6-A1-No24 (shown as 24 on Petri dishes) and VK6-Al-No26 (shown as 26 on Petri dishes). As a control, leaf segments of herbicide resistant natural mutant of Camelina microcarpa (C.m.) and leaf segments of susceptible C. sativa (C.s.) were used. Leaf segments of transgenic plants are resistant to the herbicides, while non-transgenic Camelina sativa is susceptible. The media in Petri dishes contains herbicides in various concentrations from 0 mg/l in control plate to 0.001, 0.01, 0.1, 1.0 mg/l of IMI, MSU and CSU.
(§4) Celine lines VK6-A1-No24 and VK6-A1-No26 transformed with Al construct (35S promoter—ALS W574 mutant—35S terminator). As controls, we used leaf segments of herbicide resistant natural ALS mutant of Camelina microcarpa that has broad resistance to class-2 herbicides and leaf segments of susceptible Camelina sativa. From the figure it can be clearly seen that leaf segments of transgenic plants are resistant to the herbicides, while non-transgenic Camelina sativa is susceptible.

[8] = system: non-transgenic susceptible Camelina sativa leaf segments; test: In vitro leaf segment test, non-transgenic control; format: cell-based; conditions: media with 0.001, 0.01, 0.1, 1.0 mg/l herbicide, FIG. 13
Excerpt: as §3, §4

[9] = line A9.1 (VK14A9.1), Blane Creek
[10] = line A9.2 (VK14A9.4.2), Blane Creek
[11] = line A10 (VK14A10.16), Blane Creek
[12] = line ALS23.3 (VK10A2.3), T3, W574L

COc1nc(C)nc(NC(=O)NS(=O)(=O)c2ccccc2Cl)n1 [CSU, Chlorsulfuron]
Effect as compared to control [1]: 1 | Highest surviving concentration [1]: 0.001 mg/L | Effect as compared to control ([2]; line A3 (VK9A3.4.1), Calena): 10 | Highest surviving concentration ([2]; line A3 (VK9A3.4.1), Calena): 0.01 mg/L | Effect as compared to control [2, 9]: 1 | Highest surviving concentration [2, 9]: 0.001 mg/L | Effect as compared to control [2, 10]: 10 | Highest surviving concentration [2, 10]: 0.01 mg/L | spectrum of resistance of mutation P [3]: specifically increased resistance | Effect as compared to control ([3]; line A4 (VK9A4.4.2), Calena): 10 000 | Highest surviving concentration ([3]; line A4 (VK9A4.4.2), Calena): 10 mg/L | Effect as compared to control [3, 11]: 1 000 | Highest surviving concentration [3, 11]: 1.0 mg/L | spectrum of resistance of mutation W [4]: good resistance | Effect as compared to control ([4]; line A2 (VK10A2.2), T1, W574L): 10 000 | Highest surviving concentration ([4]; line A2 (VK10A2.2), T1, W574L): 10 mg/L | Effect as compared to control [4, 12]: 1 000 | Highest surviving concentration [4, 12]: 1.0 mg/L | Effect as compared to control ([5]; line ALS7.3 (KK24A14.4)): 10 000 | Highest surviving concentration ([5]; line ALS7.3 (KK24A14.4)): 10 mg/L | Effect as compared to control ([5]; line ALS8.3 (KK18A8)): 10 000 | Highest surviving concentration ([5]; line ALS8.3 (KK18A8)): 10 mg/L | Effect as compared to control ([6]; line ALS 11.3 (VK10A5.3)): 10 000 | Highest surviving concentration ([6]; line ALS 11.3 (VK10A5.3)): 10 mg/L | Effect as compared to control ([6]; line ALS22.3 (VK13A15.12)): 10 000 | Highest surviving concentration ([6]; line ALS22.3 (VK13A15.12)): 10 mg/L | response of leaf segments to the herbicides [7]: resistant | response of leaf segments to the herbicides [8]: susceptible

COCc1cnc(C2=NC(C)(C(C)C)C(=O)N2)c(C(=O)O)c1 (stereo not drawn) [IMI, Imazamox]
Effect as compared to control [1]: 1 | Highest surviving concentration [1]: 0.01 mg/L | spectrum of resistance of mutation A [2]: specifically increased resistance | Effect as compared to control ([2]; line A3 (VK9A3.4.1), Calena): 1 000 | Highest surviving concentration ([2]; line A3 (VK9A3.4.1), Calena): 10 mg/L | Effect as compared to control [2, 9]: 100 | Highest surviving concentration [2, 9]: 1.0 mg/L | Effect as compared to control [2, 10]: 1 000 | Highest surviving concentration [2, 10]: 10 mg/L | Effect as compared to control ([3]; line A4 (VK9A4.4.2), Calena): 10 | Highest surviving concentration ([3]; line A4 (VK9A4.4.2), Calena): 0.1 mg/L | Effect as compared to control [3, 11]: 10 | Highest surviving concentration [3, 11]: 0.1 mg/L | spectrum of resistance of mutation W [4]: good resistance | Effect as compared to control ([4]; line A2 (VK10A2.2), T1, W574L): 10 000 | Highest surviving concentration ([4]; line A2 (VK10A2.2), T1, W574L): 100 mg/L | Effect as compared to control [4, 12]: 1 000 | Highest surviving concentration [4, 12]: 10 mg/L | Effect as compared to control ([5]; line ALS7.3 (KK24A14.4)): 1 000 | Highest surviving concentration ([5]; line ALS7.3 (KK24A14.4)): 10 mg/L | Effect as compared to control ([5]; line ALS8.3 (KK18A8)): 1 000 | Highest surviving concentration ([5]; line ALS8.3 (KK18A8)): 10 mg/L | Effect as compared to control ([6]; line ALS 11.3 (VK10A5.3)): 1 000 | Highest surviving concentration ([6]; line ALS 11.3 (VK10A5.3)): 10 mg/L | Effect as compared to control ([6]; line ALS22.3 (VK13A15.12)): 1 000 | Highest surviving concentration ([6]; line ALS22.3 (VK13A15.12)): 10 mg/L | response of leaf segments to the herbicides [7]: resistant | response of leaf segments to the herbicides [8]: susceptible

COC(=O)c1ccccc1S(=O)(=O)NC(=O)Nc1nc(C)nc(OC)n1 [MSU, Metsulfuron-methyl]
Effect as compared to control [1]: 1 | Highest surviving concentration [1]: 0.001 mg/L | Effect as compared to control ([2]; line A3 (VK9A3.4.1), Calena): 10 | Highest surviving concentration ([2]; line A3 (VK9A3.4.1), Calena): 0.01 mg/L | Effect as compared to control [2, 9]: 1 | Highest surviving concentration [2, 9]: 0.001 mg/L | Effect as compared to control [2, 10]: 1 | Highest surviving concentration [2, 10]: 0.001 mg/L | Effect as compared to control ([3]; line A4 (VK9A4.4.2), Calena): 10 | Highest surviving concentration ([3]; line A4 (VK9A4.4.2), Calena): 0.01 mg/L | Effect as compared to control [3, 11]: 10 | Highest surviving concentration [3, 11]: 0.01 mg/L | spectrum of resistance of mutation W [4]: less effective | Effect as compared to control ([4]; line A2 (VK10A2.2), T1, W574L): 100 | Highest surviving concentration ([4]; line A2 (VK10A2.2), T1, W574L): 0.1 mg/L | Effect as compared to control [4, 12]: 100 | Highest surviving concentration [4, 12]: 0.1 mg/L | Effect as compared to control ([5]; line ALS7.3 (KK24A14.4)): 1 000 | Highest surviving concentration ([5]; line ALS7.3 (KK24A14.4)): 1.0 mg/L | Effect as compared to control ([5]; line ALS8.3 (KK18A8)): 1 000 | Highest surviving concentration ([5]; line ALS8.3 (KK18A8)): 1.0 mg/L | increase in resistance as compared to non-transgenic control ([5]; lines bearing double mutations PW): 1 000 | Effect as compared to control ([6]; line ALS 11.3 (VK10A5.3)): 100 | Highest surviving concentration ([6]; line ALS 11.3 (VK10A5.3)): 0.1 mg/L | Effect as compared to control ([6]; line ALS22.3 (VK13A15.12)): 1 000 | Highest surviving concentration ([6]; line ALS22.3 (VK13A15.12)): 1.0 mg/L | response of leaf segments to the herbicides [7]: resistant | response of leaf segments to the herbicides [8]: susceptible
